Laboratory results from patent US12716050B2, “Two methods for preparing universal microbial medium by eutectic system-based cellulose liquefaction” (Xinjiang University, priority 2021, dated 2026).
Like-named read-outs stand apart in the source and are kept apart here.

How the values were obtained:
[1] = Screening of ionic liquids for dissolving microcrystalline cellulose; format: physicochemical
Escherichia coli = details: LB solid medium, 48 h
Description: Therefore, a purpose of this example is to screen a concentration range of the ionic liquid contained in the medium.

[2] = No. 8: 10 g IL, 1 g microcrystalline cellulose, 90° C., co-heated
[3] = No. 11: 5 g IL, 3 g microcrystalline cellulose, 90° C., co-heated
[4] = No. 3: 5 g IL, 3 g microcrystalline cellulose, 90° C., co-heated

Question: For `C=CCn1cc[n+](C)c1.[Cl-]` [1-allyl-3-methylimidazolium chloride], which “Conclusion (dissolution effect of microcrystalline cellulose)” value [1, 2] is on record?
Answer: desirable

Question: And the Dissolution time [1, 2]?
Answer: 40 min

Question: And the “Conclusion (dissolution effect of microcrystalline cellulose)” value ([1]; No. 9: 5 g IL, 1 g microcrystalline cellulose, IL heated to 100° C.)?
Answer: common

Question: What about the Dissolution time ([1]; No. 9: 5 g IL, 1 g microcrystalline cellulose, IL heated to 100° C., cellulose added) of the same compound?
Answer: 20 min

Question: And the “Conclusion (dissolution effect of microcrystalline cellulose)” value ([1]; No. 10: 5 g IL, 2 g microcrystalline cellulose, 100° C., soaked in IL for 20 h, co-heated)?
Answer: common

Question: And the Dissolution time ([1]; No. 10: 5 g IL, 2 g microcrystalline cellulose, 100° C., soaked in IL for 20 h, co-heated in water bath)?
Answer: 10 min

Question: What about the “Conclusion (dissolution effect of microcrystalline cellulose)” value [1, 3] of the same compound?
Answer: has a poor

Question: What about the Dissolution time [1, 3] of the same compound?
Answer: 240 min

Question: What does the source list for `CCCCn1cc[n+](C)c1.[Cl-]` [1-butyl-3-methylimidazolium chloride]?
Answer: Conclusion (dissolution effect of microcrystalline cellulose) ([1]; No. 1: 10 g IL, 1 g microcrystalline cellulose, 90° C., co-heated): desirable; Dissolution time ([1]; No. 1: 10 g IL, 1 g microcrystalline cellulose, 90° C., co-heated, stirred 20 sec every 5 min): 40 min; Conclusion (dissolution effect of microcrystalline cellulose) ([1]; No. 2: 5 g IL, 3 g microcrystalline cellulose, 110° C., IL preheated to liquid state): desirable; Dissolution time ([1]; No. 2: 5 g IL, 3 g microcrystalline cellulose, 110° C., IL preheated to liquid state, mixed by stirring): 1 min; Conclusion (dissolution effect of microcrystalline cellulose) [1, 4]: common; Dissolution time [1, 4]: 240 min; Effect in pretreatment of cellulose ([1]; overall conclusion of Example 1): could well process the cellulose; Conclusion (dissolution effect) (Treatment 1: 10 g IL, 1 g microcrystalline cellulose, co-heated to 90° C., repeated): Poor; Conclusion (dissolution effect) (Treatment 2: 10 g IL, 1 g cellulose, IL heated to 90° C., heating to 90° C. repeated): Common; Conclusion (dissolution effect) (Treatment 3: 10 g IL, 1 g cellulose, IL heated to 90° C., heating to 100° C. repeated): Common; Conclusion (dissolution effect) (Treatment 4: 10 g IL, 1 g cellulose, IL heated to 90° C., heating to 110° C. repeated): Common; Conclusion (dissolution effect) (Treatment 5: 10 g IL, 1 g cellulose, IL heated to 90° C., heating to 120° C. repeated): Common; Conclusion (dissolution effect) (Treatment 6: 10 g IL, 1 g cellulose, 90° C., 120° C., heating to 180° C. repeated): Desirable; Conclusion (dissolution effect) (Treatment 7: 8 g IL, 1 g cellulose, 90° C., 120° C., heating to 180° C. repeated): Desirable; Conclusion (dissolution effect) (Treatment 8: 5 g IL, 1 g cellulose, 90° C., 180° C., heating to 180° C. repeated): Desirable; Conclusion (dissolution effect) (Treatment 9: 5 g IL, 1.5 g cellulose, 90° C., 120° C., heating to 180° C. repeated): Desirable; Conclusion (dissolution effect) (Treatment 10: 5 g IL, 2 g cellulose, 90° C., 120° C., heating to 180° C. repeated): Desirable; Conclusion (dissolution effect) (Treatment 11: 5 g IL, 2.5 g cellulose, 90° C., 120° C., heating to 180° C. repeated): Desirable; Ionic liquid concentration at which the growth of Escherichia coli is inhibited (Escherichia coli): not less than 3%; Growth state of strains (Escherichia coli; ionic solution concentration 1%): Normal; Growth state of strains (Escherichia coli; ionic solution concentration 3%): Slightly inhibited; Growth state of strains (Escherichia coli; ionic solution concentration 4%): Inhibited growth; Growth state of strains (Escherichia coli; ionic solution concentration 5%): Inhibited growth; Growth state of strains (Escherichia coli; ionic solution concentration 6%): No growth; Growth state of strains (Escherichia coli; ionic solution concentration 7%): No growth
